Assay results reported in publication PMC10111420, “Optimization of Host Cell-Compatible, Antimicrobial Peptides Effective against Biofilms and Clinical Isolates of Drug-Resistant Bacteria” (ACS Infectious Diseases, 2023).
Values after ≈ are worked out from the molar mass of the structure shown. Like-named read-outs stand apart in the source and are kept apart here. Where a SMILES comes first, the peptide text is derived from it. Bridges are numbered along the chain shown (N, C = ends). [ ]: non-standard residue; d: D form.

Legend:
human RBCs = format: cell-based
Procedure: Human O+ erythrocytes were obtained from Interstate Blood Bank, Inc. Red blood cells were subjected to four or more cycles of centrifugation at 1000g with resuspension in fresh PBS. Following the final wash step, the supernatant was clear and colorless. RBC concentration was determined using a standard hemocytometer.
Peptide was serially diluted in PBS starting at a concentration of 100 μM. The final volume of peptide in each well was 50 μL. To each well, 50 μL of RBCs in PBS at 2 × 10^8 cells/mL was added. As a positive lysis control, 1% Triton was used. The mixtures were incubated at 37 °C for 1 h, after which they were centrifuged at 1000g for 5 min. After centrifugation, 10 μL of supernatant was transferred to 90 μL of DI H2O in a fresh 96-well plate. The absorbance of released hemoglobin at 410 nm was recorded, and the fractional hemolysis was calculated based on the 100 and 0% lysis controls. At least three independent experiments were performed. Results shown are averages.

[1] = test system: K. pneumoniae clinical isolates; assay: microbe, parasite or virus in culture; details: for MIC: Klebsiella pneumoniae
Procedure: (§1) Subcultures, prepared by inoculating 25 mL of fresh tryptic soy broth (TSB) with 200 μL of an overnight culture, were grown to log phase (OD600 = 0.3–0.6), after which cell counts were determined by measuring the OD600 (1.0 = 5 × 10^8 CFU/mL for E. coli, 4 × 10^8 CFU/mL for K. pneumoniae, 4 × 10^8 CFU/mL for P. aeruginosa, 1.5 × 10^8 CFU/mL for S. aureus). Bacterial cells were diluted to appropriate concentrations in TSB. We used the following clinical bacterial isolates of Klebsiella pneumoniae in this study: Strains KP6, KP46, NDM-1, KP396, and KP398 have been previously described.[43] ST58 strains C2, C3, and I2 are also described.[41] […] MRSA, […] S. aureus strain, is SAP400, a USA400 strain of community-acquired MRSA. […] The second independent set of K. pneumoniae isolates are previously described.[20],[21]
The antibiotics were serially diluted by a factor of 2:3 horizontally across 96-well plates from Corning, 25 μL per well. One column was reserved for controls. For the assays performed in the presence of RBC, type O+ human RBCs at 0 or 2.5 × 10^9 cells/mL were added in 50 μL aliquots to all wells. […] To assess bacterial growth in the assays with RBC, the OD600 was measured after a second-day inoculation with 10 μL of solution from the original plate added to 100 μL of sterile TSB followed by overnight incubation.
(§2) Experiments were repeated four to eight times independently, with pairs of replicate measurements on each 96-well plate. After overnight growth, optical densities were measured at 660 nm and the sterilized wells were identified by having O.D. < 0.08. Nonsterilized wells were nearly opaque with OD > 0.6. For each measurement, we recorded the largest dilution that sterilized the bacteria. Statistics are done on dilution numbers, rather than calculated concentrations, because only the former have normal distributions.

[2] = test system: MRSA SAP400, a USA400 strain; assay: microbe, parasite or virus in culture
Procedure: as §1
(§3) The antibiotics were serially diluted by a factor of 2:3 horizontally across 96-well plates from Corning, 25 μL per well. One column was reserved for controls. For the assays performed in the presence of RBC, type O+ human RBCs at 0 or 2.5 × 10^9 cells/mL were added in 50 μL aliquots to all wells. Following a 30-min incubation, 50 μL of TSB, inoculated with 5 × 10^5 CFU/mL, was added to all wells, and plates were incubated overnight at 37 °C. Following overnight incubation at 37 °C, the OD600 was measured (values of less than 0.1 were considered sterilized). To assess bacterial growth in the assays with RBC, the OD600 was measured after a second-day inoculation with 10 μL of solution from the original plate added to 100 μL of sterile TSB followed by overnight incubation.
as §2

[3] = test system: Pseudomonas aeruginosa clinical isolates; assay: microbe, parasite or virus in culture; details: for MIC: Pseudomonas aeruginosa
Procedure: as §1, §3, §2

[4] = test system: K. pneumoniae clinical isolates
Procedure: as §1, §3, §2

[5] = test system: Acinetobacter baumannii (PDR) Tulane isolate
[6] = test system: Escherichia coli (ATCC 25922)
Procedure: All peptide variants were synthesized and purified as described previously.[5],[7] They were tested in broth dilution in the presence and absence of 1 × 10^9 human RBCs per mL, 20% of the concentration in human blood, against Escherichia coli, K. pneumoniae, and Staphylococcus aureus. […] The toxicity of the variants was tested by measuring hemolysis as well as cytotoxicity against human WI-38 fibroblast cells.
as §1, §3, §2

[7] = test system: WI-38 human fibroblast cells; assay: in vitro; format: cell-based
Procedure: The day before cytotoxicity experiments, the 10,000 cells/well were plated in a 96-well tissue-culture plate. […] To perform the cytotoxicity assay, media was removed from the wells and replaced with peptide solutions. […] The plate was read for SYTOX fluorescence every 5 min for an hour with an excitation wavelength of 504 nm and an emission wavelength of 523 nm. Percent cytotoxicity was calculated at 60 min using the 100 and 0% lysis controls. At least three independent experiments were averaged.

[8] = test system: 14 clinical isolates of resistant bacterial strains; assay: Broth dilution, summary over the 14 clinical isolates of the first set; format: cell-based; details: statement for all 14 clinical isolates of the first set; read-out: MIC, all isolates (completely resistant)
Procedure: In Figure 4B, we plot the fraction of isolates sterilized as functions of antibiotic concentration.
as §1, §3

[9] = test system: Acinetobacter baumannii (PDR) Tulane isolate; assay: microbe, parasite or virus in culture; details: read-out: MIC, AB (PDR)Tulane
[10] = broth dilution, at least three independent measurements, SE about 40%, highest concentration 150 μM

## CC(C)C[C@@H](NC(=O)[C@@H](CCCNC(=N)N)NC(=O)[C@@H](CCCNC(=N)N)NC(=O)[C@@H](C)NC(=O)[C@@H](Cc1c[nH]c2ccccc12)NC(=O)[C@@H](CCCNC(=N)N)NC(=O)[C@H](N)CCCNC(=N)N)C(=O)N[C@H](C)C(=O)N[C@H](Cc1ccccc1)C(=O)N[C@H](C)C(=O)N[C@H](Cc1ccccc1)C(=O)N[C@H](CCCNC(=N)N)C(=O)N[C@H](CCCNC(=N)N)C(N)=O [D-CONGA] (H-[dR][dR][dW][dA][dR][dR][dL][dA][dF][dA][dF][dR][dR]-NH2)
Human RBCs
  Hemolysis at 100 μM (fractional hemolysis): 0.06
[1]; clinical isolates
  MIC, KP 6: 4.2 µM (≈ 7.4 µg/mL)
  MIC, KP 46: 4.4 µM (≈ 7.75 µg/mL)
  MIC, KP 398: 32 µM (≈ 56.4 µg/mL)
  MIC, KP 2146NDM-1: 15 µM (≈ 26.4 µg/mL)
  MIC, KP (CRE): 23 µM (≈ 40.5 µg/mL)
  MIC, KP ATCC 33495: 5.0 µM (≈ 8.81 µg/mL)
  MIC, KP ST258 C2: 64 µM (≈ 113 µg/mL)
  MIC, KP ST258 C3: 92 µM (≈ 162 µg/mL)
  MIC, KP ST258 I2: 3.2 µM (≈ 5.64 µg/mL)
  MIC, KP ST396: 2.0 µM (≈ 3.52 µg/mL)
[2]; USA400
  MIC, MRSA USA400: 2.6 µM (≈ 4.58 µg/mL)
[3]; clinical isolates
  MIC, PA(mucoid): 4.4 µM (≈ 7.75 µg/mL)
  MIC, PA(non-mucoid): 1.3 µM (≈ 2.29 µg/mL)
[4]
  K. Pneumoniae Isolate MIC, 1000527: > 25 µM
  K. Pneumoniae Isolate MIC, 1002565: > 25 µM
  K. Pneumoniae Isolate MIC, 1100770: 7.3 µM
  K. Pneumoniae Isolate MIC, 1100975: 14 µM
  K. Pneumoniae Isolate MIC, ATCC 43816: 5.4 µM
  K. Pneumoniae Isolate MIC, ATCC 700721: 5.4 µM
  K. Pneumoniae Isolate MIC, K6: 2.7 µM
  K. Pneumoniae Isolate MIC, K 6.1: 14 µM
  K. Pneumoniae Isolate MIC, K 6.2: 14 µM
  K. Pneumoniae Isolate MIC, KP 80: 14 µM
  K. Pneumoniae Isolate MIC, KP NIH 1: > 25 µM
  K. Pneumoniae Isolate MIC, KP NIH 10: > 25 µM
  K. Pneumoniae Isolate MIC, KP NIH 24: > 25 µM
  K. Pneumoniae Isolate MIC, KP NIH 27: > 25 µM
  K. Pneumoniae Isolate MIC, KP NIH 29: 14 µM
  K. Pneumoniae Isolate MIC, KP NIH 30: 7.3 µM
  K. Pneumoniae Isolate MIC, KP NIH 31: 7.3 µM
  K. Pneumoniae Isolate MIC, KP NIH 32: > 25 µM
  K. Pneumoniae Isolate MIC, KP NIH 33: 3.6 µM
[5]; PDR) Tulane isolate
  MIC, AB (PDR)Tulane: 2.4 µM (≈ 4.23 µg/mL)

## CC(C)C[C@H](NC(=O)[C@H](CCCNC(=N)N)NC(=O)[C@H](CCCNC(=N)N)NC(=O)[C@H](C)NC(=O)[C@H](Cc1c[nH]c2ccccc12)NC(=O)[C@H](CCCNC(=N)N)NC(=O)[C@H](N)CCCNC(=N)N)C(=O)N[C@@H](C)C(=O)N[C@@H](Cc1ccccc1)C(=O)N[C@@H](C)C(=O)N[C@@H](Cc1ccccc1)C(=O)N[C@@H](CCCNC(=N)N)C(=O)N[C@H](CCCNC(=N)N)C(N)=O [L-CONGA- (R1,R13)] (H-[dR]RWARRLAFAFR[dR]-NH2; N-terminus and C-terminus assumed)
[6]
  MIC in Broth Dilution, E. coli: 26 µM (≈ 45.8 µg/mL)
Human RBCs
  Hemolysis at 100 μM (fractional hemolysis): 0.01
[7]
  EC50: 134 µM

## gentamycin
[1]; [10]
  MIC, KP 6: > 150 µM
  MIC, KP 46: 1.6 µM
  MIC, KP 398: 1.9 µM
  MIC, KP 2146NDM-1: > 150 µM
  MIC, KP (CRE): 5.2 µM
  MIC, KP ATCC 33495: 1.9 µM
  MIC, KP ST258 C2: > 150 µM
  MIC, KP ST258 C3: > 150 µM
  MIC, KP ST258 I2: 8.3 µM
  MIC, KP ST396: 2.0 µM
[2]; [10]
  MIC, MRSA USA400: > 150 µM
[3]; [10]
  MIC, PA(mucoid): 5.5 µM
  MIC, PA(non-mucoid): 8.3 µM
[5]; [10]
  MIC, AB (PDR)Tulane: > 150 µM

## CC(C)C[C@@H]1NC(=O)[C@H](CCCNC(=N)N)NC(=O)[C@H](CCCNC(=N)N)NC(=O)[C@H](C)NC(=O)[C@H](Cc2c[nH]c3ccccc23)NC(=O)[C@H](CCCNC(=N)N)NC(=O)[C@H](CCCNC(=N)N)NC(=O)[C@H](CCCNC(=N)N)NC(=O)[C@H](CCCNC(=N)N)NC(=O)[C@H](Cc2ccccc2)NC(=O)[C@H](C)NC(=O)[C@H](Cc2ccccc2)NC(=O)[C@H](C)NC1=O [L-CONGA-OH cycl.] (cyclo(RRWARRLAFAFRR))
[6]
  MIC in Broth Dilution, E. coli: 13 µM (≈ 22.7 µg/mL)
Human RBCs
  Hemolysis at 100 μM (fractional hemolysis): 0.07

## CC(C)(O/N=C(\C(=O)N[C@@H]1C(=O)N2C(C(=O)[O-])=C(C[n+]3ccccc3)CS[C@H]12)c1csc(N)n1)C(=O)O [CAZ, ceftazidime]
[1]; ATCC33495, read-out: MIC, KP ATCC 33495
  MIC: > 150 µM
[1]; read-out: MIC, KP 6
  MIC: > 150 µM
[1]; read-out: MIC, KP 46
  MIC: > 150 µM
[1]; read-out: MIC, KP 398
  MIC: 133 µM (≈ 72.7 µg/mL)
[1]; read-out: MIC, KP 2146NDM-1
  MIC: > 150 µM
[1]; read-out: MIC, KP (CRE)
  MIC: > 150 µM
[1]; read-out: MIC, KP ST258 C2
  MIC: > 150 µM
[1]; read-out: MIC, KP ST258 C3
  MIC: > 150 µM
[1]; read-out: MIC, KP ST258 I2
  MIC: > 150 µM
[1]; read-out: MIC, KP ST396
  MIC: > 150 µM
[2]; Staphylococcus aureus, read-out: MIC, MRSA USA400
  MIC: > 150 µM
[3]; read-out: MIC, PA(mucoid)
  MIC: 116 µM (≈ 63.4 µg/mL)
[3]; read-out: MIC, PA(non-mucoid)
  MIC: > 150 µM
[8]
  MIC: > 150 µM
[9]
  MIC: > 150 µM

## CC(C)C[C@@H]1NC(=O)[C@H](CCCNC(=N)N)NC(=O)[C@H](CCCNC(=N)N)NC(=O)[C@H](C)NC(=O)[C@H](Cc2c[nH]c3ccccc23)NC(=O)[C@H](CCCNC(=N)N)NC(=O)[C@H](CCCNC(=N)N)NC(=O)CC[C@@H](C(N)=O)NC(=O)[C@H](CCCNC(=N)N)NC(=O)[C@H](CCCNC(=N)N)NC(=O)[C@H](Cc2ccccc2)NC(=O)[C@H](C)NC(=O)[C@H](Cc2ccccc2)NC(=O)[C@H](C)NC1=O [L-CONGA-E cycl.] (RRWARRLAFAFRRE-NH2; lactam N-14)
[6]
  MIC in Broth Dilution, E. coli: 23 µM (≈ 43.1 µg/mL)
Human RBCs
  Hemolysis at 100 μM (fractional hemolysis): 0.03
